These results are taken from patent publication US11897880B2, “7,8-dihydrobenzo[e]pyrido[3,4-c]azocine-2,5(3H,6H)-dione derivatives useful as a factor XIa inhibitors” (Janssen Pharmaceutica NV, priority 2021, dated 2024).

Holding throughout (format): biochemical
The target of assay [1] is T1, Factor XIa (Homo sapiens, UniProt P03951). The experiment in a line: Kinetic parameters of the peptide substrate 5Fam-KLTRAETV-K5Tamra with FXIa (substrate inhibition model). The text has this:
A fluorescence intensity (FLINT) based assay was used to monitor inhibition of Factor XIa. The peptide substrate, 5Fam-KLTRAETV-K5Tamra (purchased from New England Peptide) was chosen based on the FXI sequence. Conversion of zymogen FXI to its activated form, FXIa, occurs by proteolytic cleavage by […] at two sites, Arg146 and Arg180. The custom peptide used in this assay was based on the Arg146 cleavage site of FXI. The peptide substrate was designed with a fluorophore-quencher pair, where the fluorescence is quenched until FXIa cleaves the 8-mer peptide after the Arg residue.

The target of assay [2] is T2, human plasma kallikrein (Homo sapiens, UniProt P03952). The assay can be described thus: Kallikrein inhibition assay utilizing a quenched AMC peptide substrate (FLINT). The note with it: 30 min preincubation, 50 μM Z-Gly-Pro-Arg-AMC, 2 nM kallikrein. In a few lines: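 Human plasma kallikrein (2 nM final) was preincubated 30 min at room temperature with compound (11-point 3-fold dilution, top 1 μM, 2% DMSO) in pH 7.5 Tris buffer with CaCl2, BSA and CHAPS. Z-Gly-Pro-Arg-AMC (50 μM final) fluorescence was read at 340/440 nm every 5 min for 30 min. IC50 came from a 4-parameter logistic fit.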
T2 sequence (P03952 391-638 limits assumed): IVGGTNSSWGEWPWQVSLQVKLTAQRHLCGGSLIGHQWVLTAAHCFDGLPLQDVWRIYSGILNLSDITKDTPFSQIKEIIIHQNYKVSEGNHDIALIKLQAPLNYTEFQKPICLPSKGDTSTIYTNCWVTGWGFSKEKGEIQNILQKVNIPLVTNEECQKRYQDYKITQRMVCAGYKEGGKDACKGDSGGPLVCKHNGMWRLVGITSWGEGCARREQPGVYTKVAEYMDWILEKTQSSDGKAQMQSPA
T2 sequence (P03952 20-390 partner limits assumed): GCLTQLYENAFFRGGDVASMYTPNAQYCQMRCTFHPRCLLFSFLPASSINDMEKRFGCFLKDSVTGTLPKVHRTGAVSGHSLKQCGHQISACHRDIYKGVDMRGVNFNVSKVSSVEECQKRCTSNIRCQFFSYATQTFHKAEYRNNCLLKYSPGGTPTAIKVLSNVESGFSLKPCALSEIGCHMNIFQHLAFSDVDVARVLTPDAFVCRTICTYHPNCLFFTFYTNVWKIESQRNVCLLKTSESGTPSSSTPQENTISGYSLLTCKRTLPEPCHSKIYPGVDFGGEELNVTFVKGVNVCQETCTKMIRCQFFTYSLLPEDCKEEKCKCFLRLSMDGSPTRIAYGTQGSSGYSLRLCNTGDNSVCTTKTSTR

Assay [3] has as its target T1, Factor XIa. The assay can be described thus: Factor XIa inhibition assay utilizing a fluorophore-quencher pair peptide substrate (FLINT). The note with it: for pIC50: 30 min preincubation, 5Fam-KLTRAETV-K5Tamra substrate 15 μM final, kinetic reads; for pIC50 / IC50: read-out: FXIa IC50; for pKi / Ki: read-out: FXIa Ki; for Ki / IC50: cells that print μM themselves in the nM column; for IC50: same assay conditions. In a few lines:
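Enzyme preincubated 30 min at room temperature with compound (11-point 3-fold dilution, top 100 nM, 2% DMSO), then 15 μM 5Fam-KLTRAETV-K5Tamra substrate added. Buffer: 50 mM Tris pH 7.5, 100 mM NaCl, 5 mM CaCl2, 0.1 mg/mL BSA, 0.03% CHAPS. Fluorescence (485/520 nm) read kinetically over 30 min; IC50 from 4-parameter logistic fit.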

Assay [4] concerns the target T2, human plasma kallikrein. The experiment in a line: Kinetic parameters of the substrate Z-Gly-Pro-Arg-AMC with kallikrein (Michaelis-Menten fit). The text has this: A fluorescence intensity (FLINT) based assay was used to monitor inhibition of human plasma kallikrein. The peptide substrate, Z-Gly-Pro-Arg-AMC (Purchased from Bachem; Catalog #1-1150) was chosen based on its relatively low KM for kallikrein which enables running the assay at lower substrate concentrations to control background fluorescence.

pIC50, pKi: −log10 of the molar value. Where two headings read alike, the source gives them in different places. Peptide text beside a SMILES is read from it. * marks the point of attachment. 5FAM = O=C1OC2(c3ccc(O)cc3Oc3cc(O)ccc32)c2ccc(C(=O)*)cc21; AMC = Cc1cc(=O)oc2cc(N*)ccc12; Cbz = O=C(OCc1ccccc1)* Where only a bound is given, the exact number is not on record here.

T1 sequence (P03951 388-625 limits assumed): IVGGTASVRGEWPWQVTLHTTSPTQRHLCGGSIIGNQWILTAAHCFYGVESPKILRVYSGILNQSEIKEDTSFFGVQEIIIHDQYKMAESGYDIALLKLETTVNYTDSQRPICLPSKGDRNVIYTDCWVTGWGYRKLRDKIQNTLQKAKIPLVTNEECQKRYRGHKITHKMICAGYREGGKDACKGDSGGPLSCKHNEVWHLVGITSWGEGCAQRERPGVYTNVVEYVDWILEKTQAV
T1 sequence (P03951 19-387 partner limits assumed): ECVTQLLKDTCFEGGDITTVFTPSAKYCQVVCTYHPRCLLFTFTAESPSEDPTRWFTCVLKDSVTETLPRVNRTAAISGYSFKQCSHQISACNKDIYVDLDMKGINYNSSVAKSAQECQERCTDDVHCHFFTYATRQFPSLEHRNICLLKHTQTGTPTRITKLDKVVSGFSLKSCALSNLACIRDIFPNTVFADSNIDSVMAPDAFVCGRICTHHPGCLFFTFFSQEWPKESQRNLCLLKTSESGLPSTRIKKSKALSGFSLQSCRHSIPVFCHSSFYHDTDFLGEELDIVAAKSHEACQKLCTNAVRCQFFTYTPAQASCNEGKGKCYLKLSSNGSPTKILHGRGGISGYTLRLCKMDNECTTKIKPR

For orientation: pKi means the negative decadic logarithm of the Ki, by convention in mol/L. What is called Km is the concentration of substrate that gives half-maximal velocity. What is called kcat is the number of substrate molecules converted per active site and unit of time at saturation. On to “5Fam-KLTRAETV-K5Tamra (5FAM-KLTRAETV-{K(5-TAMRA)}) [fluorophore-quencher pair peptide substrate based on the Arg146 cleavage site of FXI, purchased from New England Peptide]”, for which, in the assay with Factor XIa [1] (substrate inhibition constant), the pKi was 4.21. Also, in the assay with Factor XIa [1] (substrate with FXIa), the Km is 12.4 µM and the turnover number (kcat) amounted to 0.86 s⁻¹.

For orientation: pIC50 means the negative decadic logarithm of the IC50, by convention in mol/L. Regarding `Nc1ccc(-c2cnc([C@H]3CCc4c5c(cc(=O)n43)-c3c(ccc(Cl)c3F)CCNC5=O)[nH]2)c(Cl)n1` (stereo in doubt) [Compound 48, (R*)-12-(5-(6-amino-2-chloropyridin-3-yl)-1H-imidazol-2-yl)-7-chloro-8-fluoro-3,4,13,14-tetrahydrobenzo[5,6]azocino[4,3-g]indolizine-1,10(2H,12H)-dione], the pIC50 at human plasma kallikrein [2] was 6.68. Besides, on Factor XIa [3], the pIC50 was 8.64 and the pKi was 8.92.

As usually defined, the Ki is a measure of affinity in units of concentration, obtained from inhibition or displacement. As a reminder, the IC50 is the concentration that inhibits the measured activity by half. In the case of `Nc1ccc(-c2cnc([C@@H]3CCc4c5c(cc(=O)n43)-c3c(ccc(Cl)c3F)CCNC5=O)[nH]2)c(Cl)n1` (stereo in doubt) [Compound 49, (S*)-12-(5-(6-amino-2-chloropyridin-3-yl)-1H-imidazol-2-yl)-7-chloro-8-fluoro-3,4,13,14-tetrahydrobenzo[5,6]azocino[4,3-g]indolizine-1,10(2H,12H)-dione], the pIC50 on human plasma kallikrein [2] was under 5.00. On Factor XIa [3], the Ki amounted to 1.29 µM and the IC50 was 2.59 µM.

Take `Cn1cncc1-c1cnc([C@@H]2CCc3c4c(cc(=O)n32)-c2c(ccc(Cl)c2F)CC2(CC2)NC4=O)[nH]1` (stereo in doubt) [Compound 50, (S*)-7-chloro-8-fluoro-12-(3′-methyl-3H,3′H-[4,4′-biimidazol]-2-yl)-13,14-dihydro-2H-spiro[benzo[5,6]azocino[4,3-g]indolizine-3,1′-cyclopropane]-1,10(4H,12H)-dione]: the pIC50 is under 4.70 against human plasma kallikrein [2] and 6.52 on Factor XIa [3]. In addition, on Factor XIa [3], the pKi was 6.82.

`Cn1cncc1-c1cnc([C@H]2CCc3c4c(cc(=O)n32)-c2c(ccc(Cl)c2F)CC2(CC2)NC4=O)[nH]1` (stereo in doubt) [Compound 51, (R*)-7-chloro-8-fluoro-12-(3′-methyl-3H,3H′-[4,4′-biimidazol]-2-yl)-13,14-dihydro-2H-spiro[benzo[5,6]azocino[4,3-g]indolizine-3,1′-cyclopropane]-1,10(4H,12H)-dione] showed a pIC50 against human plasma kallikrein [2] of under 5.00. For the same compound, at Factor XIa [3], the Ki was over 5 µM and the IC50 was over 10 µM.

In turn, `Nc1ccc(-c2cnc([C@H]3CCc4c5c(cc(=O)n43)-c3c(ccc(Cl)c3F)CC3(CC3)NC5=O)[nH]2)c(Cl)n1` (stereo in doubt) [Compound 53, (R*)-12-(5-(6-amino-2-chloropyridin-3-yl)-1H-imidazol-2-yl)-7-chloro-8-fluoro-13,14-dihydro-2H-spiro[benzo[5,6]azocino[4,3-g]indolizine-3,1′-cyclopropane]-1,10(4H,12H)-dione] gave a pIC50 on human plasma kallikrein [2] of under 5.00. At Factor XIa [3], the pIC50 was 7.02 and the pKi is 7.32.

Turning to `Nc1ccc(-c2cnc([C@H]3CCc4c5c(cc(=O)n43)-c3c(ccc(Cl)c3F)CC3(CC3)NC5=O)[nH]2)c(F)n1` (stereo in doubt) [Compound 54, (R*)-12-(5-(6-amino-2-fluoropyridin-3-yl)-1H-imidazol-2-yl)-7-chloro-8-fluoro-13,14-dihydro-2H-spiro[benzo[5,6]azocino[4,3-g]indolizine-3,1′-cyclopropane]-1,10(4H,12H)-dione], the pIC50 on human plasma kallikrein [2] is under 5.00; at Factor XIa [3], 6.65. In addition, on Factor XIa [3], the pKi is 6.95.

For `Nc1ccc(-c2[nH]c(C3CCc4c5c(cc(=O)n43)-c3cc(Cl)ccc3CC3(CC3)NC5=O)nc2F)c(F)n1` (stereo not shown) [Compound 1, 12-(5-(6-amino-2-fluoropyridin-3-yl)-4-fluoro-1H-imidazol-2-yl)-7-chloro-13,14-dihydro-2H-spiro[benzo[5,6]azocino[4,3-g]indolizine-3,1′-cyclopropane]-1,10(4H,12H)-dione], the pIC50 against human plasma kallikrein [2] is 6.27. On Factor XIa [3], the pIC50 is 8.82 and the pKi was 9.10.

Take `Nc1ccc(-c2cnc(C3CCc4c5c(cc(=O)n43)-c3cc(Cl)ccc3CC3(CC3)NC5=O)[nH]2)c(F)n1` (stereo not shown) [Compound 2, 12-(5-(6-amino-2-fluoropyridin-3-yl)-1H-imidazol-2-yl)-7-chloro-13,14-dihydro-2H-spiro[benzo[5,6]azocino[4,3-g]indolizine-3,1′-cyclopropane]-1,10(4H,12H)-dione]: the pIC50 against human plasma kallikrein [2] was 6.33. For the same compound, on Factor XIa [3], the pIC50 is 8.52 and the pKi was 8.82.

The compound `O=C1NC2(CC2)Cc2ccc(Cl)c(F)c2-c2cc(=O)n3c(c21)CCC3c1ncc(-c2ccnc(CO)c2F)[nH]1` (stereo not shown) [Compound 3, 7-chloro-8-fluoro-12-(5-(3-fluoro-2-(hydroxymethyl)pyridin-4-yl)-1H-imidazol-2-yl)-13,14-dihydro-2H-spiro[benzo[5,6]azocino[4,3-g]indolizine-3,1′-cyclopropane]-1,10(4H,12H)-dione] gave a pIC50 against human plasma kallikrein [2] of 6.10. Moreover, at Factor XIa [3], the pIC50 was 7.82 and the pKi is 8.12.

The compound `Nc1ccc(-c2cnc([C@@H]3CCc4c5c(cc(=O)n43)-c3c(ccc(Cl)c3F)CC3(CC3)NC5=O)[nH]2)c(Cl)n1` [Compound 52, (S)-12-(5-(6-amino-2-chloropyridin-3-yl)-1H-imidazol-2-yl)-7-chloro-8-fluoro-13,14-dihydro-2H-spiro[benzo[5,6]azocino[4,3-g]indolizine-3,1′-cyclopropane]-1,10(4H,12H)-dione] showed a pIC50 at human plasma kallikrein [2] of 7.15. At Factor XIa [3], the pIC50 was 9.70 and the pKi was 10.00.

Consider `COC(=O)Nc1ccc(-c2cnc([C@H](CC3CC3)n3cc4c(cc3=O)-c3c(ccc(Cl)c3F)CC3(CC3)NC4=O)[nH]2)cc1` [Compound 61, Methyl (S)-(4-(2-(1-(11-chloro-12-fluoro-2,5-dioxo-2,5,6,8-tetrahydro-3H-spiro[benzo[e]pyrido[3,4-c]azocine-7,1′-cyclopropan]-3-yl)-2-cyclopropylethyl)-1H-imidazol-5-yl)phenyl)carbamate], for which the pIC50 on human plasma kallikrein [2] was 6.92. In addition, at Factor XIa [3], the pIC50 was 9.00 and the pKi is 9.30.

As to `Cc1cc(=O)oc2cc(NC(=O)[C@H](CCCNC(=N)N)NC(=O)[C@@H]3CCCN3C(=O)CNC(=O)OCc3ccccc3)ccc12` [Z-Gly-Pro-Arg-AMC] (Cbz-Gly-Pro-Arg-{AMC}), on human plasma kallikrein [4], the kcat amounted to 0.76 s⁻¹.
